Results: ChEMBL document CHEMBL4118101 (Bioorg Med Chem, 2018)
In brackets after ≈: the same amount, converted by molar mass. Activity calls are given as the source filed them. No cut-off for these calls is given here.

Tests used:
Nakaseomyces glabratus [1] = assay: Antifungal activity against Candida glabrata isolate CG2 measured after 48 hrs by CLSI M27-A3 protocol based method; type: functional; settings: Nakaseomyces glabratus, isolate CG2, 48 h; read-out: MIC
Aspergillus flavus = assay: Antifungal activity against Aspergillus flavus ATCC MYA-3631 measured after 48 hrs by CLSI M38-A2 protocol based method; type: functional; settings: ATCC MYA-3631, 48 h
Nakaseomyces glabratus [2] = assay: Antifungal activity against Candida glabrata ATCC 2001 measured after 48 hrs by CLSI M27-A3 protocol based method; type: functional, CBS 138; settings: Nakaseomyces glabratus, CBS 138, 48 h; read-out: MIC
Candida albicans [3] = assay: Antifungal activity against fluconazole/ITC-resistant Candida albicans ATCC MYA-1003 measured after 48 hrs by CLSI M27-A3 protocol based method; type: functional; settings: Candida albicans, ATCC MYA-1003, 48 h; read-out: MIC
Candida parapsilosis [4] = assay: Antifungal activity against Candida parapsilosis ATCC 22019 measured after 48 hrs by CLSI M27-A3 protocol based method; type: functional; settings: Lodderomyces parapsilosis, ATCC 22019, 48 h
Cryptococcus neoformans [5] = assay: Antifungal activity against Cryptococcus neoformans isolate CN2 measured after 48 hrs by CLSI M27-A3 protocol based method; type: functional; settings: Cryptococcus neoformans, isolate CN2, 48 h; read-out: MIC
Candida albicans [6] = assay: Antifungal activity against fluconazole/ITC-susceptible Candida albicans ATCC MYA-2876 measured after 48 hrs by CLSI M27-A3 protocol based method; type: functional; settings: Candida albicans, ATCC MYA-2876, 48 h
Cryptococcus neoformans [7] = assay: Antifungal activity against Cryptococcus neoformans isolate CN3 measured after 48 hrs by CLSI M27-A3 protocol based method; type: functional; settings: Cryptococcus neoformans, isolate CN3, 48 h; read-out: MIC
Nakaseomyces glabratus [8] = assay: Antifungal activity against Candida glabrata isolate CG1 measured after 48 hrs by CLSI M27-A3 protocol based method; type: functional; settings: Nakaseomyces glabratus, 48 h; read-out: MIC
Candida albicans [9] = assay: Antifungal activity against fluconazole/ITC-resistant Candida albicans ATCC 90819 measured after 48 hrs by CLSI M27-A3 protocol based method; type: functional; settings: Candida albicans, ATCC 90819, 48 h; read-out: MIC
Cryptococcus neoformans [10] = assay: Antifungal activity against Cryptococcus neoformans isolate CN1 measured after 48 hrs by CLSI M27-A3 protocol based method; type: functional; settings: isolate CN1, 48 h
Candida albicans [11] = assay: Antifungal activity against fluconazole/ITC-resistant Candida albicans ATCC MYA-1237 measured after 48 hrs by CLSI M27-A3 protocol based method; type: functional; settings: Candida albicans, ATCC MYA-1237, 48 h; read-out: MIC
Candida albicans [12] = assay: Antifungal activity against Candida albicans ATCC 10231 measured after 48 hrs by CLSI M27-A3 protocol based method; type: functional; settings: ATCC 10231, 48 h
Candida parapsilosis [13] = assay: Antifungal activity against Candida parapsilosis isolate CP3 measured after 48 hrs by CLSI M27-A3 protocol based method; type: functional; settings: Lodderomyces parapsilosis, isolate CP3, 48 h
Candida albicans [14] = assay: Antifungal activity against fluconazole/ITC-susceptible Candida albicans ATCC MYA-2310 measured after 48 hrs by CLSI M27-A3 protocol based method; type: functional; settings: Candida albicans, ATCC MYA-2310, 48 h; read-out: MIC
Aspergillus terreus = assay: Antifungal activity against Aspergillus terreus ATCC MYA-3633 measured after 48 hrs by CLSI M38-A2 protocol based method; type: functional; settings: ATCC MYA-3633, 48 h
Aspergillus nidulans = assay: Antifungal activity against Aspergillus nidulans ATCC 38163 measured after 48 hrs by CLSI M38-A2 protocol based method; type: functional; settings: ATCC 38163, 48 h
Pichia kudriavzevii = assay: Antifungal activity against Candida krusei ATCC 6258 measured after 48 hrs by CLSI M27-A3 protocol based method; type: functional; settings: Pichia kudriavzevii, ATCC 6258, 48 h
Candida albicans [15] = assay: Antifungal activity against Candida albicans ATCC 64124 measured after 48 hrs by CLSI M27-A3 protocol based method; type: functional; settings: Candida albicans, ATCC 64124, 48 h; read-out: MIC
Candida parapsilosis [16] = assay: Antifungal activity against Candida parapsilosis isolate CP1 measured after 48 hrs by CLSI M27-A3 protocol based method; type: functional; settings: Lodderomyces parapsilosis, isolate CP1, 48 h
Nakaseomyces glabratus [17] = assay: Antifungal activity against Candida glabrata isolate CG3 measured after 48 hrs by CLSI M27-A3 protocol based method; type: functional; settings: Nakaseomyces glabratus, 48 h; read-out: MIC
Candida parapsilosis [18] = assay: Antifungal activity against Candida parapsilosis isolate CP2 measured after 48 hrs by CLSI M27-A3 protocol based method; type: functional; settings: Lodderomyces parapsilosis, isolate CP2, 48 h
Candida albicans [19] = assay: Induction of membrane permeabilization in Candida albicans ATCC 10231 assessed as membrane disruption at 4 times MIC after 1 hr by propidium iodide staining based fluorescence microscopy; type: functional, organism-based

Compound | MIC (Nakaseomyces glabratus [1]) | MIC (Aspergillus flavus) | MIC (Nakaseomyces glabratus [2]) | MIC (Candida albicans [3]) | MIC (Candida parapsilosis [4]) | MIC (Cryptococcus neoformans [5]) | MIC (Candida albicans [6]) | MIC (Cryptococcus neoformans [7]) | MIC (Nakaseomyces glabratus [8]) | MIC (Candida albicans [9]) | MIC (Cryptococcus neoformans [10]) | MIC (Candida albicans [11]) | MIC (Candida albicans [12]) | MIC (Candida parapsilosis [13]) | MIC (Candida albicans [14]) | MIC (Aspergillus terreus) | MIC (Aspergillus nidulans) | MIC (Pichia kudriavzevii) | MIC (Candida albicans [15]) | MIC (Candida parapsilosis [16]) | other results
OC(CNC1CCCCCCC1)(Cn1cncn1)c1ccc(F)cc1F (configuration not stated) | 42.8 µM (≈ 15.6 µg/mL) | 85.8 µM (≈ 31.3 µg/mL) | 85.8 µM (≈ 31.3 µg/mL) | > 85.8 µM | 10.7 µM (≈ 3.9 µg/mL) | > 85.8 µM | > 85.8 µM | 42.8 µM (≈ 15.6 µg/mL) | 85.8 µM (≈ 31.3 µg/mL) | 85.8 µM (≈ 31.3 µg/mL) | 21.4 µM (≈ 7.8 µg/mL) | 85.8 µM (≈ 31.3 µg/mL) | 85.8 µM (≈ 31.3 µg/mL) | 5.4 µM (≈ 1.97 µg/mL) | 10.7 to 85.8 µM (≈ 3.9 to 31.3 µg/mL) | > 85.8 µM | > 85.8 µM | 85.8 µM (≈ 31.3 µg/mL) | 85.8 µM (≈ 31.3 µg/mL) | 2.7 µM (≈ 0.984 µg/mL) | MIC (Nakaseomyces glabratus [17]): 85.8 µM (≈ 31.3 µg/mL); MIC (Candida parapsilosis [18]): 2.7 µM (≈ 0.984 µg/mL)
CC[C@H](C)C[C@H](C)CCCCCCCCC(=O)N[C@H]1C[C@@H](O)[C@@H](NCCN)NC(=O)[C@@H]2[C@@H](O)CCN2C(=O)[C@H]([C@H](O)CCN)NC(=O)[C@H]([C@H](O)[C@@H](O)c2ccc(O)cc2)NC(=O)[C@@H]2C[C@@H](O)CN2C(=O)[C@H]([C@@H](C)O)NC1=O [CASPOFUNGIN] | 0.2 µM (≈ 0.219 µg/mL) | > 25.8 µM | 0.05 µM (≈ 0.0547 µg/mL) | 0.4 µM (≈ 0.437 µg/mL) | 1.6 µM (≈ 1.75 µg/mL) | 25.8 µM (≈ 28.2 µg/mL) | 0.05 µM (≈ 0.0547 µg/mL) | 12.9 µM (≈ 14.1 µg/mL) | 1.6 µM (≈ 1.75 µg/mL) | 0.1 µM (≈ 0.109 µg/mL) | 12.9 µM (≈ 14.1 µg/mL) | 0.2 µM (≈ 0.219 µg/mL) | 0.8 µM (≈ 0.875 µg/mL) | 0.4 µM (≈ 0.437 µg/mL) | 0.1 µM (≈ 0.109 µg/mL) | > 25.8 µM | > 25.8 µM | 0.4 µM (≈ 0.437 µg/mL) | 0.2 µM (≈ 0.219 µg/mL) | 0.4 µM (≈ 0.437 µg/mL) | MIC (Nakaseomyces glabratus [17]): 0.8 µM (≈ 0.875 µg/mL); MIC (Candida parapsilosis [18]): 0.4 µM (≈ 0.437 µg/mL)
CCCCCCCCCCCCCCSC[C@H]1O[C@H](O[C@H]2[C@H](O)[C@@H](O[C@H]3O[C@H](CO)[C@@H](O)[C@H](N)[C@H]3O)[C@H](N)C[C@@H]2N)[C@H](N)[C@@H](O)[C@@H]1O | – | – | – | – | – | – | – | – | – | – | – | – | – | – | – | – | – | – | – | – | Activity (Candida albicans [19]): Active
CCCCCCCCN(CCCCCCCC)CC(O)(Cn1cncn1)c1ccc(F)cc1F (configuration not stated) | 16.3 µM (≈ 7.8 µg/mL) | > 65.4 µM | 65.4 µM (≈ 31.3 µg/mL) | > 65.4 µM | 2 µM (≈ 0.957 µg/mL) | > 65.4 µM | 65.4 µM (≈ 31.3 µg/mL) | > 65.4 µM | 32.6 µM (≈ 15.6 µg/mL) | 65.4 µM (≈ 31.3 µg/mL) | > 65.4 µM | 65.4 µM (≈ 31.3 µg/mL) | 65.4 µM (≈ 31.3 µg/mL) | 4.1 µM (≈ 1.96 µg/mL) | > 65.4 µM | > 65.4 µM | 32.7 µM (≈ 15.7 µg/mL) | 65.4 µM (≈ 31.3 µg/mL) | > 65.4 µM | 2 µM (≈ 0.957 µg/mL) | MIC (Nakaseomyces glabratus [17]): 65.4 µM (≈ 31.3 µg/mL); MIC (Candida parapsilosis [18]): 4.1 µM (≈ 1.96 µg/mL)
CCCCCCNCC(O)(Cn1cncn1)c1ccc(F)cc1F (configuration not stated) | 23 µM (≈ 7.78 µg/mL) | > 92.3 µM | 23 to 46.1 µM (≈ 7.78 to 15.6 µg/mL) | 92.3 µM (≈ 31.2 µg/mL) | 2.9 µM (≈ 0.981 µg/mL) | > 92.3 µM | 46.1 µM (≈ 15.6 µg/mL) | 92.3 µM (≈ 31.2 µg/mL) | 92.3 µM (≈ 31.2 µg/mL) | 92.3 µM (≈ 31.2 µg/mL) | 23 µM (≈ 7.78 µg/mL) | > 92.3 µM | 23 µM (≈ 7.78 µg/mL) | 2.9 µM (≈ 0.981 µg/mL) | 92.3 µM (≈ 31.2 µg/mL) | > 92.3 µM | > 92.3 µM | 23 µM (≈ 7.78 µg/mL) | > 92.3 µM | 2.9 µM (≈ 0.981 µg/mL) | Activity (Candida albicans [19]): inactive; MIC (Nakaseomyces glabratus [17]): 92.3 µM (≈ 31.2 µg/mL); MIC (Candida parapsilosis [18]): 2.9 µM (≈ 0.981 µg/mL)
CCCCCCN(CCCCCC)CC(O)(Cn1cncn1)c1ccc(F)cc1F (configuration not stated) | > 74.1 µM | > 74.1 µM | > 74.1 µM | > 74.1 µM | 74.1 µM (≈ 31.3 µg/mL) | > 74.1 µM | > 74.1 µM | 37.1 µM (≈ 15.7 µg/mL) | > 74.1 µM | > 74.1 µM | > 74.1 µM | > 74.1 µM | > 74.1 µM | > 74.1 µM | > 74.1 µM | > 74.1 µM | > 74.1 µM | > 74.1 µM | > 74.1 µM | > 74.1 µM | MIC (Nakaseomyces glabratus [17]): > 74.1 µM; MIC (Candida parapsilosis [18]): > 74.1 µM
